Test results published in patent US20240247031A1, “COMPOSITION FOR TREATING CANCER CONTAINING TELOMERASE-TARGETING GNRH ANTAGONIST-DERIVED PEPTIDE HS1002” (Research & Business Foundation Sungkyunkwan University, priority 2023, published 2024).

Tests used:
[1] = test system: prostate cancer cell line (LNCaP); assay: MTT cytotoxicity comparison of peptides at the same concentration (FIG. 6); assay type: cell-based, human; conditions: 300 μM, 48 h, 1% FBS, among GV1001, GnRH, HS1001, HS1002
Description: The prostate cancer cell line (LNCaP), in which the reactivity of HS1002 to hTERT had been best, were used to investigate the cytotoxic effects of GV1001, GnRH, HS1001, and HS1002 under conditions of 1,500 cells/well, 1% FBS, and 48-hour treatment. The prostate cancer cells were seeded at 1.5×10^3 cells per well in a 96-well plate, and then incubated in an incubator for one day. Thereafter, the cells were treated with HS1001, HS1002, GV1001, and GnRH diluted to (300, 200, 100, and 50 μM) in fresh media. After 48-h incubation, an MTT reagent (3-(4,5-dimethylthiazol-2-yl)-2,5-diphenyltetrazolium bromide, Sigma-Aldrich, M6494) was added, and subsequently the plate was shielded from light and kept in an incubator for 3 h. Thereafter, the MTT solution was discarded, and 100 μL of dimethyl sulfoxide (DMSO, 99.9%, HPLC grade, DAEJUNG CHEMICALS & METALS, 3047-2304) was added to each well, and subsequently the plate was shielded from light and then left at room temperature for 20 min. After that, the absorbance was measured at 540 nm using a microplate reader.

[2] = target: T1, HEK293-GnRHR cells (Homo sapiens, UniProt P30968); assay: CRE-luciferase reporter assay; assay type: cell-based
T1 construct: GFP; expressed in transfected cells
T1 sequence (P30968 1-328): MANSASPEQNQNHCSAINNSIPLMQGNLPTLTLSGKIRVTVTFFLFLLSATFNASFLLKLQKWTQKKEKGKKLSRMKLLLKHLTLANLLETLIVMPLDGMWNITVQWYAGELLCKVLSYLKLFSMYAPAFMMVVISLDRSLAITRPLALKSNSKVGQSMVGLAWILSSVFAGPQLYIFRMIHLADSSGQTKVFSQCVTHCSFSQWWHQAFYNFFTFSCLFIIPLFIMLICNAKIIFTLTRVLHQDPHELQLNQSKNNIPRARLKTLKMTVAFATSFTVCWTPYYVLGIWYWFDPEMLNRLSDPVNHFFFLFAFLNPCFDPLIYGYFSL
Description: Human embryonic kidney cell line (HEK293), and mouse cancer cell lines (MC38, 4T1) were purchased from the American Type Culture Collection (Manassas, VA, USA). All cell lines were grown in Dulbecco's Modified Essential Medium (DMEM) or Roswell Park Memorial Institute (RPMI) 1640 supplemented with 10% FBS, 100 U/mL penicillin, and 100 μg/mL streptomycin (WelGENE, Daegu, South Korea) in a humidified atmosphere of 5% CO2 at 37° C. To obtain GnRHR-overexpressing HEK293 (HEK293-GnRHR) cells, transfection of the pCMV-AC-GFP-GnRHR vector (HEK293-GnRHR) was performed using Lipofectamine™ 3000 according to the manufacturer's instructions (Cat. 100022052, Thermo Fisher Scientific, Waltham, MA, USA). Colonies of geneticin-resistant cells were selected by adding G418 (800 μg/mL, Sigma) to the culture medium. The HEK293-pCMV-AC-GFP vector (HEK293-Vector) cells were used as a mock-transfection group.
The HEK293-pCMV6-AC-GFP and HEK293-GnRHR cells (4×10^4 cells/well) were grown in 96-well plates and co-transfected with a luciferase reporter plasmid containing a cAMP response element (CRE) using Lipofectamine 3000 (Life Technologies). The transfected cells were exposed to different concentrations of peptide for 24 h, and the promoter activity was measured by a dual-luciferase reporter assay system (BPS Bioscience). The firefly and Renilla luciferase activities were measured using a microplate luminometer (Thermo, Varioskan LUX Multimode Microplate Reader). The calculation of relative luciferase activities involved the normalization of the firefly luciferase activity […].

CCNC(=O)[C@@H]1CCCN1C(=O)[C@@H](NC(=O)[C@H](Cc1ccccc1)NC(=O)[C@H](CCCNC(=N)N)NC(=O)[C@H](CC(C)C)NC(=O)[C@H](CCCNC(=N)N)NC(=O)[C@H](Cc1ccc(O)cc1)NC(=O)[C@H](CO)NC(=O)[C@H](Cc1c[nH]c2ccccc12)NC(=O)[C@H](Cc1c[nH]cn1)NC(=O)[C@@H]1CCC(=O)N1)[C@@H](C)CC [HS1002]
cytotoxicity to prostate cancer cells [1]: cytotoxicity to prostate cancer cells was highest
CRE-luciferase activity compared to the control ([2]; 10 μM): 2 fold
cAMP-mediated promoter binding activity (CRE-luciferase), concentration dependence ([2]; 24 h): concentration-dependently enhanced
